According to US6440453B1, “Transdermal systems for release of 5-HT3 receptor antagonists and their use in anti-emetic treatment” (Novosis Pharma AG, priority 1999, dated 2002):
Counter-ions that a name gives are not always drawn. Like-named read-outs stand apart in the source and are kept apart here.

How the values were obtained:
[1] = diffusion cell, cited from earlier work
[2] = after oral administration; cited from earlier work
[3] = healthy test persons, single dose 0.15 mg/kg i.v., cited from earlier work
nausea and emesis = conditions: cited from earlier work
[4] = humans; cited from earlier work
[5] = in vitro skin permeation through the skin of a nude mouse
From the text: All employed solutions are saturated.
The given values are average values which were obtained with saturated solutions.
Saturated solutions were used to achieve the respective maximal thermodynamic activities.

[6] = cited from earlier work

In the case of `Cc1cccc(CN2CCN(C)C[C@@H](NC(=O)c3n[nH]c4ccccc34)C2)c1.Cl.Cl` [(R)-(−)-N-(1-methyl-4-(3-methylbenzyl)hexahydro-1H-1,4-diazepin-6-yl)-1H-indazole-3-carboxamided.2HCl], the “flow of the active agent through the human epidermis” value ([1]; adhesive matrix of styrene-butadiene copolymer used as a comparison) is listed as 0.8 μg/cm^2/h and the “flow of the active agent through the human epidermis” value ([1]; two-phase matrix with 4 % active agent, calcium silicate, dimethyl siloxane adhesive (WO 9407468)) is listed as 17.1 μg/cm^2/h.

For `Cc1nccn1CC1CCc2c(c3ccccc3n2C)C1=O` (racemic) [ondansetron, (±)-1,2,3,9-tetrahydro-9-methy-3-[(2-methyl-1H-imidazole-1-yl)methyl]-4H-carbazol-4-one monohydrochloride], the bioavailability [2] is listed as “approximately 50%”, the average half-life ([3]; age group 19-40 years) is listed as 3.5 h and the peak concentration in plasma ([3]; age group 19-40 years) is listed as 102 ng/mL. The plasma clearance ([3]; age group 19-40 years) was 6.33 mL/min/kg, the average half-life ([3]; age group 61-74 years) was 4.7 h and the plasma clearance ([3]; age group 61-74 years) was 5.33 mL/min/kg. For the same compound, the average half-life ([3]; age group ≧75 years) was 5.5 h, the plasma clearance ([3]; age group ≧75 years) was 4.33 mL/min/kg and the “treatment of nausea and emesis” value (nausea and emesis; patients treated with anti-tumor drugs such as cisplatin derivatives) was “reliable in treating nausea and emesis”. The side effects (nausea and emesis; patients) was “headaches, diarrhea, and temporary abnormalities in liver function tests” and the “part of a radioactively marked dose found in urine” value [4] was “approximately 5%”.

For `Cc1nccn1CC1CCc2c(c3ccccc3n2C)C1=O` (centres unmarked) [ondansetron hydrochloride], the “permeation compared with the free base” value ([5]; in combination with the described solvent mixture) was “permeates better than ondansetron in the form of the free, non-ionic base”, the “amount permeated relative to a saturated aqueous solution” value ([5]; mixture of ethanol, tea tree oil and water vs saturated aqueous solution, after 24 hours) was “approximately 12 times” and the “permeation through the skin (FIG. 2)” value ([5]; saturated aqueous solution) was “the results do not differ from those which were obtained using pure tea tree oil”. The “permeation through the skin (FIG. 1)” value ([5]; saturated solution in ethanol) was “best permeation”, the “permeation through the skin (FIG. 1)” value ([5]; saturated solution in tea tree oil alone) was “insufficient permeation” and the amount permeated ([5]; solution in a mixture of ethanol, tea tree oil and water, after 24 hours) was “approximately 1.2 mg per cm^2”. For the same compound, the “flow of the active agent (FIG. 2)” value ([5]; solution in a mixture of ethanol, tea tree oil and water, first 4 to 5 hours) was “extremely strong increase”, the “time until peak concentrations are present in the plasma” value ([6]; after oral administration) was “Approximately 1 hour” and the average elimination half-life ([6]; healthy test persons) was 3.5 h. The average elimination half-life ([6]; older patients) was “approximately 7.9 hours”.
